Assay results as given in patent US6245917A, “Crystalline sodium phenytoin monohydrate” (Warner-Lambert Company, priority 1999, dated 2001).

Experiment: Intrinsic dissolution in 90% ethanol/10% water
Format: physicochemical
Conditions: for concentration, average: average of runs
Procedure: Dissolutions were carried out in a standard Van-Kel dissolution bath. The medium was either water, 90% water/10% ethanol, or 95% water/5% ethanol. For nonintrinsic dissolution experiments, SPM and SPA powders were sieved and fractions that passed through a 75 μm sieve were used. For intrinsic dissolution experiments, tablets were prepared in a standard Woods apparatus by compression of 400 mg of material at 3000 psig for 1 minute.
Each experiment was carried out by placing 900 mL of medium into one of the Van-Kel dissolution vessels and allowing it to equilibrate at 37° C. The test materials were added (powder or tablet) and samples were withdrawn by syringe at the specified times (see Table 4). Each sample was filtered through a 0.2μ nylon syringe filter. Three dissolution experiments were carried out for each lot of suspension.
For intrinsic dissolution experiments, the test material is compressed into a tablet and the tablet (still in the die) is lowered into the dissolution medium. In this way, a consistent surface area, the tablet face, is presented to the medium. […] Therefore, tablets of SPM and SPA were prepared, removed from the die, crushed into powders, and examined by XRPD.
Intrinsic dissolution experiments were then carried out in 90% ethanol/10% water. The tablets dissolved very quickly in this medium, resulting in rapid deformation of the tablet faces. Occasionally pieces of solid broke free of the tablets and sank to the bottom of the dissolution vessel. Within 15-40 minutes the tablets had dissolved completely. Because of this behavior, consistent surface areas were not maintained during the course of the experiments. The result was a high degree of imprecision in the concentrations measured (Table 6).
Samples were analyzed by high-performance liquid chromatography (HPLC) on a BAS 480 HPLC system equipped with a UV/VIS detector and a TSP AS 100 autosampler, and controlled with INJECT software. A Phenomenex Hypersil C18 BDS column (5μ particle size, 4.6×150 mm) was used. The mobile phase was prepared by mixing water, methanol, and acetic acid in a 60:40:0.5 volume ratio. Analyses were carried out at a flow rate of 1 mL/minute with the UV/VIS detector set at 254 nm. The injection volume was 5 μL.
A standard solution consisting of 74.8 μg/mL of sodium phenytoin in mobile phase was injected three times before and three times after each series of analyses. Each unknown sample was injected three times without dilution. The peak areas at 254 nm were recorded and averaged for each time point. The amount of sodium phenytoin in solution at each time point was calculated from the line equation of the calibration curve: […]

## O=C1NC(=O)C(c2ccccc2)(c2ccccc2)N1 [SPM, sodium phenytoin monohydrate]
1 min, monohydrate
  concentration, average: 3300 ng/mL
  concentration, Run 1: 2420 ng/mL
  concentration, Run 2: 2210 ng/mL
  concentration, Run 3: 5260 ng/mL
90% ethanol/10% water
  time to complete dissolution of tablets: 15 to 40 min
90% ethanol/10% water, high degree of imprecision
  dissolution rate relative to SPA: dissolves more rapidly than does SPA
5 min, monohydrate
  concentration, average: 39460 ng/mL
  concentration, Run 1: 44780 ng/mL
  concentration, Run 2: 25240 ng/mL
  concentration, Run 3: 48380 ng/mL
10 min, monohydrate
  concentration, average: 92380 ng/mL
  concentration, Run 1: 99180 ng/mL
  concentration, Run 2: 70050 ng/mL
  concentration, Run 3: 107910 ng/mL
15 min
  concentration, Run 2: 120280 ng/mL
  concentration, Run 3: 153220 ng/mL
  concentration, average: 136750 ng/mL
20 min, monohydrate
  concentration, average: 166110 ng/mL
  concentration, Run 1: 166110 ng/mL

## O=C1NC(=O)C(c2ccccc2)(c2ccccc2)N1 [SPA, sodium phenytoin anhydrate, reference compound]
1 min
  concentration, Run 1: 1730 ng/mL
  concentration, Run 2: 1680 ng/mL
  concentration, Run 3: 3360 ng/mL
  concentration, average: 2260 ng/mL
5 min
  concentration, Run 1: 11710 ng/mL
  concentration, Run 2: 12240 ng/mL
  concentration, Run 3: 19910 ng/mL
  concentration, average: 14620 ng/mL
10 min
  concentration, Run 1: 23270 ng/mL
  concentration, Run 2: 23840 ng/mL
  concentration, Run 3: 57430 ng/mL
  concentration, average: 34840 ng/mL
20 min
  concentration, Run 1: 47050 ng/mL
  concentration, Run 2: 60830 ng/mL
  concentration, Run 3: 144620 ng/mL
  concentration, average: 87170 ng/mL
40 min
  concentration, Run 1: 112230 ng/mL
  concentration, Run 2: 139740 ng/mL
  concentration, Run 3: 193120 ng/mL
  concentration, average: 148360 ng/mL
